± gives the expanded uncertainty stated by the source.
Test: mn = molality of the nth substance listed, in mol/kg
Settings: 101.3 kPa, Liquid; for viscosity: Capillary tube (Ostwald / Ubbelohde) method; for mass density: Pycnometric method

O=C(O)c1cccnc1 [3-carboxylpyridine] + O
Settings	mass density [kg/m3]	viscosity [mPa·s]
275.15 K, m1 = 0.0098	1000.41 ± 0.92	1.675 ± 0.036
275.15 K, m1 = 0.0199	1000.84 ± 0.92	1.685 ± 0.037
275.15 K, m1 = 0.023	1000.96 ± 0.92	1.687 ± 0.037
275.15 K, m1 = 0.0249	1001.1 ± 0.92	1.687 ± 0.037
275.15 K, m1 = 0.0299	1001.29 ± 0.92	1.691 ± 0.037
275.15 K, m1 = 0.0349	1001.51 ± 0.93	1.686 ± 0.037
275.15 K, m1 = 0.0402	1001.76 ± 0.93	1.691 ± 0.037
275.15 K, m1 = 0.0429	1001.91 ± 0.93	1.693 ± 0.037
275.15 K, m1 = 0.0453	1002.02 ± 0.93	1.694 ± 0.037
275.15 K, m1 = 0.0497	1002.2 ± 0.93	1.69 ± 0.037
275.15 K, m1 = 0.055	1002.46 ± 0.93	1.7 ± 0.037
275.15 K, m1 = 0.06	1002.7 ± 0.93	1.702 ± 0.037
275.15 K, m1 = 0.0646	1002.87 ± 0.93	1.704 ± 0.037
275.15 K, m1 = 0.0701	1003.17 ± 0.93	1.706 ± 0.037
275.15 K, m1 = 0.0801	1003.54 ± 0.93	1.715 ± 0.037
277.15 K, m1 = 0.0094	1000.39 ± 0.92	1.572 ± 0.034
277.15 K, m1 = 0.0201	1000.87 ± 0.92	1.574 ± 0.034
277.15 K, m1 = 0.0231	1000.98 ± 0.92	1.574 ± 0.034
277.15 K, m1 = 0.025	1001.1 ± 0.92	1.576 ± 0.034
277.15 K, m1 = 0.0296	1001.29 ± 0.92	1.577 ± 0.034
277.15 K, m1 = 0.0399	1001.69 ± 0.92	1.58 ± 0.034
277.15 K, m1 = 0.043	1001.86 ± 0.92	1.582 ± 0.034
277.15 K, m1 = 0.0451	1001.97 ± 0.92	1.583 ± 0.034
277.15 K, m1 = 0.0499	1002.23 ± 0.92	1.586 ± 0.034
277.15 K, m1 = 0.055	1002.34 ± 0.92	1.586 ± 0.034
277.15 K, m1 = 0.06	1002.64 ± 0.92	1.587 ± 0.034
277.15 K, m1 = 0.0631	1002.69 ± 0.92	1.591 ± 0.034
277.15 K, m1 = 0.065	1002.84 ± 0.92	1.591 ± 0.034
277.15 K, m1 = 0.0705	1003.13 ± 0.92	1.592 ± 0.034
279.15 K, m1 = 0.0103	1000.39 ± 0.92	1.474 ± 0.032
279.15 K, m1 = 0.0198	1000.79 ± 0.92	1.479 ± 0.032
279.15 K, m1 = 0.0229	1000.95 ± 0.92	1.485 ± 0.032
279.15 K, m1 = 0.03	1001.23 ± 0.92	1.489 ± 0.032
279.15 K, m1 = 0.0351	1001.46 ± 0.92	1.49 ± 0.032
279.15 K, m1 = 0.04	1001.74 ± 0.92	1.495 ± 0.032
279.15 K, m1 = 0.0431	1001.79 ± 0.92	1.494 ± 0.032
279.15 K, m1 = 0.0454	1001.94 ± 0.92	1.496 ± 0.032
279.15 K, m1 = 0.0501	1002.16 ± 0.92	1.499 ± 0.032
279.15 K, m1 = 0.0551	1002.39 ± 0.92	1.503 ± 0.032
279.15 K, m1 = 0.06	1002.54 ± 0.92	1.5 ± 0.032
279.15 K, m1 = 0.0631	1002.68 ± 0.92	1.502 ± 0.032
279.15 K, m1 = 0.065	1002.79 ± 0.92	1.503 ± 0.032
279.15 K, m1 = 0.0701	1003.04 ± 0.92	1.509 ± 0.032

NC(=O)c1cccnc1 [3-pyridinecarboxamide] + O
Settings	mass density [kg/m3]	viscosity [mPa·s]
275.15 K, m1 = 0.0101	1000.22 ± 0.92	1.683 ± 0.036
275.15 K, m1 = 0.0201	1000.53 ± 0.92	1.687 ± 0.036
275.15 K, m1 = 0.03	1000.83 ± 0.92	1.691 ± 0.037
275.15 K, m1 = 0.035	1001.02 ± 0.92	1.697 ± 0.037
275.15 K, m1 = 0.0401	1001.11 ± 0.92	1.703 ± 0.037
275.15 K, m1 = 0.0452	1001.26 ± 0.92	1.707 ± 0.037
275.15 K, m1 = 0.0502	1001.51 ± 0.92	1.71 ± 0.037
275.15 K, m1 = 0.0598	1001.74 ± 0.92	1.711 ± 0.037
275.15 K, m1 = 0.0651	1001.85 ± 0.92	1.714 ± 0.037
275.15 K, m1 = 0.07	1002.13 ± 0.93	1.718 ± 0.037
275.15 K, m1 = 0.0749	1002.21 ± 0.93	1.724 ± 0.037
275.15 K, m1 = 0.08	1002.41 ± 0.93	1.721 ± 0.037
275.15 K, m1 = 0.0852	1002.57 ± 0.93	1.724 ± 0.037
275.15 K, m1 = 0.1004	1002.93 ± 0.93	1.73 ± 0.037
277.15 K, m1 = 0.01	1000.25 ± 0.92	1.578 ± 0.034
277.15 K, m1 = 0.0202	1000.54 ± 0.92	1.583 ± 0.034
277.15 K, m1 = 0.03	1000.97 ± 0.92	1.588 ± 0.035
277.15 K, m1 = 0.0348	1000.98 ± 0.92	1.59 ± 0.035
277.15 K, m1 = 0.045	1001.27 ± 0.92	1.595 ± 0.035
277.15 K, m1 = 0.05	1001.42 ± 0.92	1.598 ± 0.035
277.15 K, m1 = 0.0601	1001.66 ± 0.92	1.603 ± 0.035
277.15 K, m1 = 0.0652	1001.86 ± 0.92	1.605 ± 0.035
277.15 K, m1 = 0.0691	1002 ± 0.92	1.607 ± 0.035
277.15 K, m1 = 0.075	1002.19 ± 0.92	1.61 ± 0.035
277.15 K, m1 = 0.0801	1002.29 ± 0.92	1.612 ± 0.035
277.15 K, m1 = 0.0849	1002.44 ± 0.92	1.615 ± 0.035
279.15 K, m1 = 0.02	1000.51 ± 0.92	1.481 ± 0.032
279.15 K, m1 = 0.0302	1000.82 ± 0.92	1.482 ± 0.032
279.15 K, m1 = 0.0347	1000.97 ± 0.92	1.485 ± 0.033
279.15 K, m1 = 0.0348	1000.92 ± 0.92	1.485 ± 0.033
279.15 K, m1 = 0.04	1001.13 ± 0.92	1.487 ± 0.033
279.15 K, m1 = 0.0451	1001.28 ± 0.92	1.488 ± 0.033
279.15 K, m1 = 0.05	1001.45 ± 0.92	1.493 ± 0.033
279.15 K, m1 = 0.0598	1001.7 ± 0.92	1.495 ± 0.033
279.15 K, m1 = 0.0699	1001.95 ± 0.92	1.5 ± 0.033
279.15 K, m1 = 0.0749	1002.04 ± 0.92	1.504 ± 0.033
279.15 K, m1 = 0.0799	1002.19 ± 0.92	1.507 ± 0.033
279.15 K, m1 = 0.0849	1002.36 ± 0.92	1.51 ± 0.033
279.15 K, m1 = 0.0897	1002.44 ± 0.92	1.513 ± 0.033
279.15 K, m1 = 0.1004	1002.78 ± 0.92	1.52 ± 0.033

Reference: the NIST ThermoML archive (doi:10.1016/j.jct.2014.02.024)
